Test results taken from patent publication US20100240537A1, “Substituted 6-(alkylbenzylamino)purine derivatives for use as cytokinin receptor antagonists and preparations containing these derivatives” (priority 2007, published 2010).

Experiments:
Type in all cases: cell-based
CRE1/AHK4 = target: T1, CRE1/AHK4 (Arabidopsis thaliana, UniProt Q9C5U0); test: Activation of cytokinin receptor CRE1/AHK4 in E. coli KMI001 (β-galactosidase reporter); conditions: E. coli KMI001 pIN-III-AHK4, 17 h incubation; n.i. means without interaction
T1 construct: expressed in transfected cells; host or cells: Escherichia coli KMI001, plasmid pIN-III-AHK4
Description: (§1) Escherichia coli strains KMI001 harbouring the plasmid pIN-III-AHK4 or pSTV28-AHK3 were grown overnight at 25° C. in M9 media enriched with 0.1% casamino acids to OD600˜1. The preculture was diluted 1:600 in 1 ml M9 medium containing 0.1% casamino acids and 1 μl stock solution of either the tested compound (10^−7 M−5×10^−5 M) or solvent control (DMSO, ethanol, methanol) were added. The cultures were further grown at 25° C. in microtiter plate, 200 μl per well. […] The cultures were centrifuged and 50 μl aliquots of the supernatant were transferred to microtiter plate containing 2 μl 50 mM 4-methyl umbelliferyl galactoside which was subsequently incubated for 1 h at 37° C. The reaction was stopped by adding 100 μl 0.2 M Na2CO3. Fluorescence was measured using a Fluoroscan Ascent (Labsystems, Finland) at the excitation and emission wavelengths of 365 and 460 nm, respectively. The OD600 of remaining culture was determined and β-galactosidase activity was calculated as nmol 4-methylumbelliferone×OD600^−1×h^−1.
(§2) The EC50 value, the compound concentration activating the receptor to 50%, was calculated from the obtained dose response curves. The compound functioning as cytokinin antagonists should not activate cytokinin signalling pathway. The values shown in Table 2 are means of three replicates and the entire test was repeated at least twice.

AHK3 = target: T2, AHK3 (Arabidopsis thaliana, UniProt Q9C5U1); test: Activation of cytokinin receptor AHK3 in E. coli KMI001 (β-galactosidase reporter); conditions: E. coli KMI001 pSTV28-AHK3, 28 h incubation, n.i. means without interaction
T2 construct: expressed in transfected cells; host or cells: Escherichia coli KMI001, plasmid pSTV28-AHK3
T2 sequence (Q9C5U1 1-1036): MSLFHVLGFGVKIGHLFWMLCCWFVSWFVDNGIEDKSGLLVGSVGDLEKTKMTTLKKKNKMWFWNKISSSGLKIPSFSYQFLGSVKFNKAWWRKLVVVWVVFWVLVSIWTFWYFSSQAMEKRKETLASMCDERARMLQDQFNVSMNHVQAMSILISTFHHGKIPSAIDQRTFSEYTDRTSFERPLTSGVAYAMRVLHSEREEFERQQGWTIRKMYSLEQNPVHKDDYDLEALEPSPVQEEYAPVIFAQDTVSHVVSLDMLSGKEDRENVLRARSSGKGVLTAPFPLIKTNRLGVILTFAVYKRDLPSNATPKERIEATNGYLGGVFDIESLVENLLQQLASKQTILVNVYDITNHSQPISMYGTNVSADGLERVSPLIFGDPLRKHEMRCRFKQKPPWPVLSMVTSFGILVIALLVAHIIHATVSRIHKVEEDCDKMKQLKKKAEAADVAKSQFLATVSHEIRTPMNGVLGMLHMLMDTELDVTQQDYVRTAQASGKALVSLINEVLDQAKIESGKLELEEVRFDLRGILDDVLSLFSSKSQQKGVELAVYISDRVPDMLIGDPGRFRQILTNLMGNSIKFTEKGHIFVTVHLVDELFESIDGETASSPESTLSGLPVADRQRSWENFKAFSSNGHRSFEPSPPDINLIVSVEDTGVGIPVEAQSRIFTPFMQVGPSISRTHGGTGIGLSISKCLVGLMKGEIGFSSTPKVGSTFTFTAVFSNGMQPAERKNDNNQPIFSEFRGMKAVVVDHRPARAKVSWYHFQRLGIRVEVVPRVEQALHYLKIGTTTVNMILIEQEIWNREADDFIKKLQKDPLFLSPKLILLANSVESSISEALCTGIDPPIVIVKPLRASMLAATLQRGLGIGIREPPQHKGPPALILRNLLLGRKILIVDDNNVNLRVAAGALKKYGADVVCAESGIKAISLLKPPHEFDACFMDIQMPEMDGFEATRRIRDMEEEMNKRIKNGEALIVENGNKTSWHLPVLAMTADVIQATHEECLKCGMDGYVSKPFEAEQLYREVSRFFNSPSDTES
Description: as §1, §2

[1] = system: cytokinin-dependent tobacco callus Nicotiana tabacum L. cv. Wisconsin 38; test: Cytokinin-dependent tobacco callus bioassay; conditions: for activity (%) [10^−6 mol · l^−1 BA = 100%]: at concentration with highest activity, n.a. means inactive; for concentration with highest activity: callus fresh weight after four weeks
Description: Stimulatory effect of newly prepared derivatives was tested using cytokinin-dependent tobacco callus. The cytokinin-dependent tobacco callus Nicotiana tabacum L. cv. Wisconsin 38 was maintained at 25° C. in darkness on modified MS medium, containing per 1 liter: 4 μmol of nicotinic acid, 2.4 μmol of pyridoxine hydrochloride, 1.2 μmol of thiamine, 26.6 μmol of glycine, 1.37 μmol of glutamine, 1.8 μmol of myo-inositol, 30 g of sucrose, 8 g of agar, 5.37 μmol of NAA and 0.5 μmol of the compound tested. Subcultivation was carried out every three weeks. Fourteen days before the bioassay, the callus tissue was transferred to the media without 6-benzylaminopurine. The biological activity was determined from the increase of the fresh callus weight after four weeks of cultivation. Five replicates were prepared for each concentration of the compound tested and the entire test was repeated twice. […] The compounds to be tested were dissolved in dimethylsulfoxide (DMSO) and the solution brought up to 10^−3M with distilled water. This stock solution was further diluted with the respective media used for the biotest to a concentration ranging from 10^−8M to 10^−4M.
From the obtained data, the concentration with the highest activity was selected for each compound tested. Relative activity of the compound at this concentration was calculated (Table 3). The activity obtained for 10^−6 M of the control substance 6-benzylaminopurine was postulated as 100% biological activity. […]

T1 sequence (Q9C5U0 whole entry): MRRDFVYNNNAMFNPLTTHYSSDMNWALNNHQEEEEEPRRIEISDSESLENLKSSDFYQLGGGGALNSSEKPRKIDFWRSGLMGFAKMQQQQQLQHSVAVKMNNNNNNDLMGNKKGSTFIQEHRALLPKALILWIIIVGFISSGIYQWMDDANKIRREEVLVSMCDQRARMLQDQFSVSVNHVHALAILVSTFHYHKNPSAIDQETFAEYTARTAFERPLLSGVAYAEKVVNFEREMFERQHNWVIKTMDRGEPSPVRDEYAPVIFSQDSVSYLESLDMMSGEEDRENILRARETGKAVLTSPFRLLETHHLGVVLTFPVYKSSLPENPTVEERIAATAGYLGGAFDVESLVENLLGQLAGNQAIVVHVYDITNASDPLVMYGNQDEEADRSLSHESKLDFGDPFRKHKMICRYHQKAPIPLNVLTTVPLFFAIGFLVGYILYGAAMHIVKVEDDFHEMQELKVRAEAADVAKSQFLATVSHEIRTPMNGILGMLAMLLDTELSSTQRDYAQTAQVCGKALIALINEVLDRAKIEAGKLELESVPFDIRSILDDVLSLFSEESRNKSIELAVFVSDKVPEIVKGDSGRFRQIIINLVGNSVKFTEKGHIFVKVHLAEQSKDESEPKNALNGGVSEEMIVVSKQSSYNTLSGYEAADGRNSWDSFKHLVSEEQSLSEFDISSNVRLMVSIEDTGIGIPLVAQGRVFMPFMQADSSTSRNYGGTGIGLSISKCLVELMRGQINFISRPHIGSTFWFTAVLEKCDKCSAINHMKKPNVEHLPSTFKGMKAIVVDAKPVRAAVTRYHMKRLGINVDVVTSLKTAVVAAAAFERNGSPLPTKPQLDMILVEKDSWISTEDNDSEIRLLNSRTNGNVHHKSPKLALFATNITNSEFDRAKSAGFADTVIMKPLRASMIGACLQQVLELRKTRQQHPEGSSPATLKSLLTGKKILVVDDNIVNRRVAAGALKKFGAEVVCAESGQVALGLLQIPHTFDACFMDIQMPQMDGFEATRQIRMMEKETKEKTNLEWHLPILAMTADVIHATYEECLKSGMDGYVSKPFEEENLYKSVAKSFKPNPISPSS

Molecule | EC50 CRE1/AHK4 (activation of cytokinin receptor) (CRE1/AHK4) | EC50 AHK3 (activation of cytokinin receptor) (AHK3) | EC50 (AHK3; read-out: EC50 AHK3 (activation of cytokinin receptor)) | activity (%) [10^−6 mol · l^−1 BA = 100%] [1] | concentration with highest activity [1]
Cc1cccc(CNc2ncnc3nc[nH]c23)c1N [Compound 1, 6-(2-amino-3-methylbenzylamino)purine] | n.i. | n.i | – | – | –
CCc1cccc(CNc2ncnc3nc[nH]c23)c1N [Compound 4, 6-(2-amino-3-ethylbenzylamino)purine] | n.i. | n.i | – | – | –
Cc1cc(C)c(N)c(CNc2ncnc3nc[nH]c23)c1 [Compound 21, 6-(2-amino-3,5-dimethylbenzylamino)purine] | n.i. | n.i | – | – | –
Cc1ccc(N)c(CNc2ncnc3nc[nH]c23)c1 [Compound 3, 6-(2-amino-5-methylbenzylamino)purine] | n.i. | n.i | – | – | –
Cc1ccc(CNc2ncnc3nc[nH]c23)c(O)c1 [Compound 9, 6-(2-hydroxy-4-methylbenzylamino)purine] | n.i. | n.i | – | – | –
CCc1ccc(N)c(CNc2ncnc3nc[nH]c23)c1 [Compound 5, 6-(2-amino-5-ethylbenzylamino)purine] | n.i. | n.i | – | – | –
Cc1ccc([N+](=O)[O-])c(CNc2ncnc3nc[nH]c23)c1 [Compound 16, 6-(2-nitro-5-methylbenzylamino)purine] | n.i. | n.i | – | – | –
Cc1cccc(O)c1CNc1ncnc2nc[nH]c12 [Compound 11, 6-(2-hydroxy-6-methylbenzylamino)purine] | n.i. | n.i | – | 23 (±5) % | 10^−4 mol.l^−1

More lines, main results first:

EC50 CRE1/AHK4 (activation of cytokinin receptor) (CRE1/AHK4) | EC50 AHK3 (activation of cytokinin receptor) (AHK3) | EC50 (AHK3; read-out: EC50 AHK3 (activation of cytokinin receptor)) | Molecule | activity (%) [10^−6 mol · l^−1 BA = 100%] [1] | concentration with highest activity [1]
n.i. | – | > 100 µM | Cc1cccc(CNc2ncnc3nc[nH]c23)c1[N+](=O)[O-] [Compound 15, 6-(2-nitro-3-methylbenzylamino)purine] | – | –
n.i. | n.i | – | 6-(2-thio-5-methylbenzylamino)purine [Compound 19] | 1.3 (±1) % | 10^−4 mol.l^−1
n.i. | n.i | – | CCc1cccc(CNc2ncnc3nc[nH]c23)c1[N+](=O)[O-] [Compound 17, 6-(2-nitro-3-ethylbenzylamino)purine] | – | –
n.i. | n.i | – | Cc1ccc(CNc2ncnc3nc[nH]c23)c(O)c1C [Compound 24, 6-(2-hydroxy-3,4-dimethylbenzylamino)purine] | – | –
n.i. | n.i | – | CCc1ccc(O)c(CNc2ncnc3nc[nH]c23)c1 [Compound 13, 6-(2-hydroxy-5-ethylbenzylamino)purine] | – | –
n.i. | n.i | – | Cc1cc(C)c(O)c(CNc2ncnc3nc[nH]c23)c1 [Compound 23, 6-(2-hydroxy-3,5-dimethylbenzylamino)purine] | – | –
n.i. | n.i | – | Cc1ccc(CNc2ncnc3nc[nH]c23)c(N)c1 [Compound 2, 6-(2-amino-4-methylbenzylamino)purine] | – | –
n.i. | n.i | – | CCc1cccc(CNc2ncnc3nc[nH]c23)c1O [Compound 12, 6-(2-hydroxy-3-ethylbenzylamino)purine] | – | –
